row,Structure (SMILES),melting point
1,C=C1CCN(CC)c2c(CSc3nc4ccccc4[nH]3)cccc21,148 to 149 °C
2,CN1C(=O)CCC2(C)c3ccc(Sc4cncc5ccccc45)cc3CCC12 (configuration not stated),161 to 163 °C
3,CCOC(=O)COc1ccc2c(c1)C(=O)C(Br)CC2 (configuration not stated),91 to 93 °C
4,CC(=O)C1=CCC2C3CCC4CC(O)CCC4(C)C3C(=O)CC12C (configuration not stated),218 °C
5,Cc1ccc(C(=O)Nc2ccc3ccc(Cl)nc3n2)s1,220 °C
6,CCCCC1SCC(C(=O)OC(C)(C)C)N1C(=O)CNC(=O)NCC(C(=O)O)c1ccccc1 (configuration not stated),102 °C
7,O=[N+]([O-])c1ccc2oc(-c3ccc(Cl)cc3)nc2c1,217 to 218 °C
8,CC(=O)Nc1ccc(Oc2ccc(S(C)=O)cc2)cc1 (configuration not stated),159 to 161 °C
9,COc1ccc(N2CCN(C3CCNCC3)C2=O)cc1,140 °C
10,Cn1nnnc1Cc1ccc(N)cc1,104 to 105 °C
11,O=S(=O)(CCO)Nc1cc(C(c2cc(F)ccc2F)S(=O)(=O)c2ccc(Cl)cc2)c(Cl)cn1 (configuration not stated),155 to 158 °C
12,ClC1(Cl)C(Cl)(Cl)C1(Cl)c1ccccn1,132 to 134 °C
13,COc1cc(C)nc(NC(=O)NS(=O)(=O)c2cc([N+](=O)[O-])cs2)n1,155 °C
14,CCc1nn(CCCO)c(CC)c1Cc1cc(Cl)cc(Cl)c1,56 to 59 °C
15,CCOC(=O)c1ccc(CCCC2NC(=O)CS2)c(Cl)c1 (configuration not stated),81.5 to 82.5 °C
16,COc1ccc(C(=O)c2ccco2)cc1OC,112 to 114 °C
17,CC1=NC=CC(=O)C1OCc1ccccc1 (configuration not stated),162 to 163 °C
18,CC(=S)NCC1CN(c2ccc(-c3csc(Cn4cnnn4)n3)c(F)c2)C(=O)O1 (configuration not stated),96 to 98 °C
19,CCCc1nc2ccc(C(=O)c3ccccc3)cc2n1Cc1ccc(C(=O)O)cc1,295 to 296 °C

row,Structure (SMILES),melting point
1,CC(C)CCCC(C)NC(=O)CCC(=NNC(N)=S)c1ccccc1 (configuration not stated),58 to 65 °C
2,CCOC(=O)c1cnc(Nc2ccccc2F)[nH]c1=O,250 to 252 °C
3,CSC(Cc1ccc2oc(Cc3nc(-c4cccc(C)c4)oc3C)cc2c1)C(=O)O (configuration not stated),125 to 127 °C
4,Cn1cncc1C(O)(c1ccc(Cl)cc1)c1ccc2c(c1)C(c1cccc(Cl)c1)=NCC(=O)N2 (configuration not stated),200 °C
5,OC(CCl)(Cc1c(Cl)cccc1Cl)c1ccc(Cl)cc1Cl (configuration not stated),117 °C
6,CC1=NN=C(c2ccc3ccccc3n2)c2cc3oc(=O)[nH]c3cc2C1,304 to 306 °C
7,Cc1ccc2c(c1)C1(OCCCO1)C(=O)N2,128 to 130 °C
8,Cc1ccc(-c2nc(NC(=O)c3nnn[nH]3)cs2)cc1,228 to 230 °C
9,Cc1ccc(C2NCCc3c2[nH]c2ccccc32)cc1 (configuration not stated),207 to 209 °C
10,C#CCOc1cc(Oc2ccc(F)cc2)ncn1,81.4 °C
11,CC=Cn1c(C)c(C)c2cnnc(NCc3ccccc3)c21,130 to 131 °C
12,C=C(C)C(=O)NC1=CC(C(=O)O)C(O)(C(C)=O)C=C1 (configuration not stated),192 °C
13,CC(C)(C)[Si](C)(C)O[C@H]1OC[C@@H](n2cnc3cc(Cl)c(Cl)cc32)[C@H](O)[C@@H]1O,128 to 130 °C
14,"C=CCOC(=O)C1=C(C)NC(C)=C(C(=O)OC)C1c1cccc([N+](=O)[O-])c1 (single isomer, unassigned; (-))",215 to 217 °C
15,CCCCN(CC)c1nc(C)nc2c1NC(=O)CN2c1ccc(C(C)C)cc1Br,146 to 147 °C
16,COc1ccccc1CNc1ccc2cc(Nc3cccc(C(F)(F)F)n3)ccc2n1,151 °C
17,C=CCNc1nnc(-c2ccc(F)c(F)c2Nc2ccc(I)cc2F)o1,175 to 178 °C
18,C=Cc1c(N)nc(-c2ccc(Cl)c(OC)c2F)nc1C(=O)OC,145 to 147 °C

# Source: a melting point compilation (Tetko et al.; mined from patent text by program, amines drawn as free bases though some values may be those of a salt)
